Test results reported in patent publication US4791113A, “Mitomycin derivatives as antileukemia agents” (Kyowa Hakko Kogyo Kabushiki Kaisha, priority 1986, dated 1988).
In brackets after ≈: the same amount, converted by molar mass. Read-outs that look alike come from different tables or passages of the source.

How the values were obtained:
[1] = test system: Hela S3 cultured cells; assay: Effects upon Hela S3 cultured cells; format: cell-based; settings: Homo sapiens
Procedure: Table 3 indicates the effects of typical Compounds (I) against Hela S3 culture cells. In this table, IC50 denotes the concentration of the test compound capable of reducing the number of cells to 50% the number of untreated cells.
Cultured cells of Hela S3 were added to a MEM medium containing 10% (V/V) of bovine fetal serum and […] of glutamine to obtain a cell suspension of 3×10^4 cells/ml. The cell suspension was poured into each well (1 ml/well) of a 24 well-multiplate for culturing at 37° C. in an incubator containing carbon dioxide (5%) and air (95%). After 24 hours, samples were dissolved or suspended in PBS, ethanol or dimethylsulfoxide and added to the medium at different concentrations, followed by culturing at 37° C. for 72 hours in the same incubator. An aspirator was used to collect the medium from each well. The surface of each medium was washed by adding PBS (1 ml) gently, and then PBS was sucked out. PBS containing trypsin (0.05%) and EDTA (0.02%) was poured into each well. After pipetting, the number of cells in each suspension was counted by the use of a microcell counter (commercial product of Toa Iyo Denshi K.K., Japan). By reference to a curve showing the concentration vs. the number of cells, the IC50 (concentration of sample capable of reducing the number of cells to 50% of the number of control untreated cells) was measured.

[2] = test system: Sarcoma 180 solid tumour; format: in vivo, ddy mouse; settings: C.I.=(LD50)/(ED50), ED50 = dose at T/C=0.5, i.v. (tail vein), 7 days
Text: (§1) In this table, C.I. denotes chemotherapeutic index, calculated as C.I.=(LD50)/(ED50), wherein LD50 denotes the value of acute toxicity, and ED50 denotes the dose of a sample which is capable of reducing the volume of Sarcoma 180 solid tumour to 50% of the corresponding volume of the solid tumour of untreated group.
(§2) The test compound was abdominally administered once to ddy mice, each group consisting of 5 animals.
(§3) 5×10^6 cells of Sarcoma 180 solid tumour were abdominally implanted into a ddy mouse. 7 days after this, the cells were collected from the ascites fluid. The cells were washed once with physiological saline under sterile conditions and suspended in physiological saline to obtain a cell suspension containing 5×10^7 cells/ml of which 0.1 ml was implanted into a ddy male mouse (body weight 20±2 g) under the skin of the right armpit. The test compound was dissolved in physiological saline or the same solution containing Tween 80. 24 hours after implantation of the tumour cells, 0.1-0.2 ml of the solution containing the test compound was administered to the tail vein of each animal in the test group consisting of 5 animals. 7 days after the implantation, the major axis (a) and minor axis (b) of the tumour were measured to calculate the volume of the tumour as "a"×"b^2 "/2. The antitumour effect was indicated by T/C which is the ratio of the tumour volume in the test animals to the corresponding volume of the control (untreated) animals.
(§4) T/C ratios and the dose were respectively plotted on the ordinate using an arithmetic scale and on the abscissa using a logarithmic scale, the relationship between the dosage and the T/C ratio being converted to a straight line by the least squares method. From the straight tropic line thus-obtained, the dosage corresponding to a T/C=0.5 viz. ED50 was determined.

[3] = in vivo; parameters: species or system mice (ddy strain); settings: mouse, ip, ratio of dose reducing peripheral leucocytes to 4000 (per mm^3; i.p., 4 days) to ED50 (Sarcoma 180), read-out: (WBC4000)/(ED50)
Text: as §1, §3, §4
Sarcoma 180 solid tumour cells (5×10^6) were subcutaneously implanted under the skin of the right armpit of each mouse (body weight 20±2 g) of a group consisting of 5 male mice (ddy strain). 24 hours after this, a test compound was intraperitoneally administered to each animal. 4 days later, blood (0.02 ml) was collected from the suborbital plexus vein of each tumour-carrying animal. The collected sample of blood was dispersed in 9.98 ml of Cellkit Seven solution. One drop of saponin solution was added to the sample to dissolve erythrocytes and then a microcell counter was used to measure the number of leucocytes. On graph paper, the number of leucocytes was plotted on the ordinate using an arithmetic scale, and the dosage was plotted on the abscissa using a logarithmic scale to show the relationship of the dosage to the number of peripheral leucocytes, from which the value of WBC4000 viz. a value capable of giving 4000 peripheral leucocytes per mm^3 (about half of the corresponding value in normal mice) was obtained.

[4] = in vivo; settings: mouse, ip, single abdominal administration, ddy mice, 14 days, Behrens-Korber's method
Text: as §1, §2

[5] = concentration reducing number of Hela S3 cells to 50% of untreated, 72 hours at 37° C., read-out: IC50

Compound	IC50 ([1]; HeLa S3, 72 h)	C.I. (chemotherapeutic index) [2]	selectivity ratio [3]	LD50 at 336 h [4]	IC50 [1, 5]
CO[C@@]12[C@H](COC(N)=O)c3c(O)c(N=O)c(C)c(O)c3N1C[C@@H]1N[C@@H]12 [Example 1, [1aS-(1aα,8β,8aα,8bα)]-8-{[(aminocarbonyl)oxy]methyl}-4,7-dihydroxy-1,1a,2,8,8a,8b-hexahydro-8a-methoxy-5-methyl-6-nitroso-azirino[2',3':3,4]pyrrolo[1,2-a]indole]	1.14 µg/mL (≈ 3.24 µM)	2.0	0.7	53 mg/kg	
CO[C@@]12[C@H](CO)c3c(O)c(N=O)c(C)c(O)c3N1C[C@@H]1N[C@@H]12 [Example 4, [1aS-(1aα, 8β, 8aα, 8bα)]-4,7-dihydroxy-1,1a,2,8,8a,8b-hexahydro-8-hydroxymethyl-8a-methoxy-5-methyl-6-nitroso-azirino [2',3':3,4]pyrrolo[1,2-a]indole]		2.8	> 1.4	100 mg/kg	
COc1c(C)c(N=O)c(O)c2c1N1C[C@@H]3N[C@@H]3[C@]1(OC)[C@@H]2COC(N)=O [Example 6]	0.005 µg/mL (≈ 0.0137 µM)	5.6	2.7	75 mg/kg	
COc1c(C)c(N=O)c(O)c2c1N1C[C@H]3[C@H](N3C)[C@]1(OC)[C@@H]2COC(N)=O (stereo partly drawn) [Example 7, [1aS-(1aα, 8α, 8aα, 8bα)]-8-{[(aminocarbonyl)oxy]methyl}-4,8a-dimethoxy-1,5-dimethyl-1,1a,2,8,8a,8b-hexahydro-7-hydroxy-6-nitroso-azirino-[2',3':3,4]-pyrrolo[1,2-a]indole]	0.013 µg/mL (≈ 0.0344 µM)				
COc1c(N=O)c(C)c(OC)c2c1[C@@H](COC(N)=O)[C@@]1(OC)[C@H]3N[C@H]3CN21 [Example 8, [1aS-(1aα, 8β, 8aα, 8bα)]-8-{[(aminocarbonyl)oxy]methyl}-1,1a,2,8,8a,8b-hexahydro-5-methyl-6-nitroso-4,7,8a-trimethoxy-azirino [2',3':3,4]pyrrolo[1,2-a]indole]	0.2 µg/mL (≈ 0.529 µM)	2.1	1.1	100 mg/kg	
COc1c(C)c(N=O)c(O)c2c1N1C[C@@H]3N[C@@H]3[C@]1(OC)[C@@H]2CO [Example 9, [1aS-(1aα, 8β, 8aα, 8bα)]-4,8a-dimethoxy-1,1a,2,8,8a,8b-hexahydro-7-hydroxy-8-hydroxymethyl-5-methyl-6-nitroso-azirino[2',3':3,4]pyrrolo [1,2-a]indole]	0.005 µg/mL (≈ 0.0156 µM)				
COc1c(C)c(N=O)c(O)c2c1N1C[C@H]3[C@H](N3C)[C@]1(O)[C@H]2COC(N)=O (some centres unmarked) [Example 10]	0.004 µg/mL (≈ 0.011 µM)	> 0.56	> 0.56	> 100 mg/kg	
CO[C@@]12[C@H](COC(N)=O)c3c(O)c(N=O)c(C)c(OC(C)=O)c3N1C[C@H]1[C@@H]2N1C(C)=O [Example 11, [1aS-(1aα, 8β, 8aα, 8bα)]-1-acetyl-4-acetyloxy-8-{[(aminocarbonyl)oxy]methyl}-1,1a,2,8,8a,8b-hexahydro-7-hydroxy-8a-methoxy-5-methyl-6-nitroso-azirino[2',3':3,4]pyrrolo[1,2-a]indole]		2.0	0.9	38 mg/kg	0.02 µg/mL (≈ 0.046 µM)
CO[C@@]12[C@H](COC(N)=O)c3c(O)c(N=O)c(C)c(OCC(C)C)c3N1C[C@@H]1N[C@@H]12 [Example 13, [1aS-(1aα, 8β, 8aα, 8bα)]-8-{[(aminocarbonyl)oxy]methyl}-1,1a,2,8,8a,8b-hexahydro-7-hydroxy-4-isobutyloxy-8a-methoxy-5-methyl-6-nitroso-azirino[2',3':3,4]pyrrolo[1,2-a]indole]		> 0.74	> 0.74	> 100 mg/kg	
CO[C@@]12[C@H](COC(N)=O)c3c(O)c(N=O)c(C)c(OS(=O)(=O)c4ccc(C)cc4)c3N1C[C@@H]1N[C@@H]12 [Example 15, [1aS-(1aα,8β,8aα,8bα)]-8-{[(aminocarbonyl)oxy]methyl}-1,1a,2,8,8a,8b-hexahydro-7-hydroxy-8a-methoxy-5-methyl-6-nitroso-4-[(p-toluenesuIfonyl)oxy]azirino[2',3':3,4]pyrrolo[1,2-a]indole]	0.027 µg/mL (≈ 0.0535 µM)	2.6	3.9	56 mg/kg	
CO[C@@]12[C@H](COC(N)=O)c3c(O)c(N=NC(=O)c4ccccc4)c(C)c(O)c3N1C[C@@H]1N[C@@H]12 [Example 17, [1aS-(1aα,8β,8aα,8bα)]-8-{[(aminocarbonyl)oxy]methyl}-6-[(benzoyl)azo-]-4,7-dihydroxy-1,1a,2,8,8a,8b-hexahydro-8a-methoxy-5-methyl-azirino-[2',3':3,4]pyrrolo[1,2-a]indole]	14.9 µg/mL (≈ 32.9 µM)				
CO[C@@]12[C@H](COC(N)=O)c3c(O)c(N=NC(C)=O)c(C)c(O)c3N1C[C@@H]1N[C@@H]12 [Example 18, [1aS-(1aα,8β,8aα,8bα)]-6-[(acetyl)azo]-8-{[(aminocarbonyl)oxy]methyl}-4,7-dihydroxy-1,1a,2,8,8a,8b-hexahydro-8a-methoxy-5-methyl-azirino[2',3':3,4]pyrrolo[1,2-a]indole]	0.54 µg/mL (≈ 1.38 µM)				
CO[C@@]12[C@H](COC(N)=O)c3c(O)c(N=NC(=O)c4ccccc4)c(C)c(O)c3N1C[C@H]1[C@@H]2N1C (stereo partly drawn) [Example 21, [1aS-(1aα,8β,8aα,8bα)]-8-{[(aminocarbonyl)oxy]methyl}-6-[(benzoyl)azo]-4,7-dihydroxy-1,5-dimethyl-1,1a,2,8,8a,8b-hexahydro-8a-methoxy-azirino[2',3':3,4]pyrrolo[1,2-a]indole]	0.75 µg/mL (≈ 1.6 µM)	> 1.0	0.62	> 100 mg/kg	
CO[C@@]12[C@H](CO)c3c(O)c(N=NC(=O)c4ccccc4)c(C)c(O)c3N1C[C@H]1[C@@H]2N1C (stereo partly drawn) [Example 22, [1aS-(1aα,8β,8aα,8bα)]-6-[(benzoyl)azo]-4,7-dihydroxy-1,5-dimethyl-1,1a,2,8,8a,8b-hexahydro-8-hydroxymethyl-8a-methoxy-azirino-[2',3':3,4[pyrrolo]1,2-a]indole]	0.131 µg/mL (≈ 0.309 µM)				
COC(=O)N=Nc1c(C)c(O)c2c(c1O)[C@@H](COC(N)=O)[C@@]1(OC)[C@H]3N[C@H]3CN21 [Example 24]	0.012 µg/mL (≈ 0.0295 µM)			> 100 mg/kg	
CO[C@@]12[C@H](COC(N)=O)c3c(O)c(N=NC(N)=O)c(C)c(O)c3N1C[C@@H]1N[C@@H]12 [Example 25]	0.003 µg/mL (≈ 0.00765 µM)				
CO[C@@]12[C@H](COC(N)=O)c3c(O)c(N=NC(=O)c4ccccc4O)c(C)c(O)c3N1C[C@@H]1N[C@@H]12 [Example 28, [1aS-(1aα,8β,8aα,8bα)]-8-{[(aminocarbonyl)oxy]methyl}-4,7-dihydroxy-1,1a,2,8,8a,8b-hexahydro-6-[(2"-hydroxybenzoyl)azo]-8a-methoxy-5-methyl-azirino [2',3':3,4]pyrrolo[1,2-a]indole]	0.08 µg/mL (≈ 0.17 µM)				
CO[C@@]12[C@H](COC(N)=O)c3c(O)c(N=NC(=S)SC)c(C)c(O)c3N1C[C@@H]1N[C@@H]12 [Example 31]		2.5	1.1	50 mg/kg	
CO[C@@]12[C@H](COC(N)=O)C3=C(C(=O)C(C)=C(N)C3=O)N1C[C@@H]1N[C@@H]12 [mitomycin C, reference compound]					0.004 µg/mL (≈ 0.012 µM)
